Among the data in ChEMBL document CHEMBL1212927, “Synthesis and structure-activity relationships of novel 8a-aza-8a-homoerythromycin A ketolides” (2010) are MIC values, retold here.

In brackets after ≈: the same amount, converted by molar mass. A value given as a limit tells only on which side of the number the result lay.

One experiment deals with Moraxella catarrhalis. The experiment in a line: Antibacterial activity against Moraxella catarrhalis B0324 by agar microdilution method. The class given is functional.
Experiment [1] has as its system Staphylococcus aureus. Nature of the experiment: Antibacterial activity against efflux-resistant Staphylococcus aureus B0331 by agar microdilution method. In kind it is functional.
For experiment [2], the system named is Streptococcus pyogenes. The experiment in a line: Antibacterial activity against inducible macrolide-lincosamide-streptogramin B-resistant Streptococcus pyogenes B0543 by agar microdilution method. The class given is functional.
Experiment [3] relates to Streptococcus pneumoniae. The experiment in a line: Antibacterial activity against constitutive macrolide-lincosamide-streptogramin B-resistant Streptococcus pneumoniae B0627 by agar microdilution method. The class given is functional.
In experiment [4] the test system is Staphylococcus aureus. Nature of the experiment: Antibacterial activity against erythromycin A-susceptible Staphylococcus aureus B0329 by agar microdilution method.
In experiment [5] the test system is Streptococcus pyogenes. The experiment in a line: Antibacterial activity against constitutive macrolide-lincosamide-streptogramin B-resistant Streptococcus pyogenes B0544 by agar microdilution method. In kind it is functional.
The subject of experiment [6] is Streptococcus pneumoniae. Nature of the experiment: Antibacterial activity against efflux-resistant Streptococcus pneumoniae B0326 by agar microdilution method. In kind it is functional.
In experiment [7] the test system is Staphylococcus aureus. Nature of the experiment: Antibacterial activity against constitutive macrolide-lincosamide-streptogramin B-resistant Staphylococcus aureus B0330 by agar microdilution method. In kind it is functional.
Experiment [8] relates to Streptococcus pyogenes. Nature of the experiment: Antibacterial activity against efflux-resistant Streptococcus pyogenes B0545 by agar microdilution method. In kind it is functional.
In experiment [9] the test system is Staphylococcus aureus. Nature of the experiment: Antibacterial activity against inducible macrolide-lincosamide-streptogramin B-resistant Staphylococcus aureus B0538 by agar microdilution method. In kind it is functional.
The test system of experiment [10] is Streptococcus pneumoniae. Nature of the experiment: Antibacterial activity against erythromycin-susceptible Streptococcus pneumoniae B0541 by agar microdilution method.
Experiment [11] concerns Streptococcus pyogenes. Nature of the experiment: Antibacterial activity against erythromycin A-susceptible Streptococcus pyogenes B0542 by agar microdilution method.
The subject of another experiment is Haemophilus influenzae. Nature of the experiment: Antibacterial activity against Haemophilus influenzae B0529 by agar microdilution method. In kind it is functional.

On to `CC[C@H]1OC(=O)[C@H](C)C(=O)[C@H](C)[C@@H](O[C@@H]2O[C@H](C)C[C@H](N(C)C)[C@H]2O)[C@](C)(OCC(O)CNCCc2ccccn2)C[C@@H](C)NC(=O)[C@H](C)[C@@H](O)[C@]1(C)O` (mixture of isomers), for which the MIC in the experiment on Moraxella catarrhalis is 4 µg/mL; in the experiment on Staphylococcus aureus [1], 8 µg/mL; against Streptococcus pyogenes [2], 4 µg/mL; against Streptococcus pneumoniae [3] it was 8 µg/mL; in the experiment on Staphylococcus aureus [4], 8 µg/mL; against Streptococcus pyogenes [5] it was 32 µg/mL. Also, the MIC was 16 µg/mL in the experiment with Streptococcus pneumoniae [6]; above 64 µg/mL against Staphylococcus aureus [7]; 4 µg/mL in the experiment with Streptococcus pyogenes [8]; 8 µg/mL in the experiment with Staphylococcus aureus [9]; 1 µg/mL against Streptococcus pneumoniae [10]; 0.25 µg/mL in the experiment on Streptococcus pyogenes [11]. The compound further came in with an MIC in the experiment on Haemophilus influenzae of 32 µg/mL.

For `CC[C@H]1OC(=O)[C@H](C)C(=O)[C@H](C)[C@@H](O[C@@H]2O[C@H](C)C[C@H](N(C)C)[C@H]2O)[C@](C)(OCC(O)CN2CCN(c3cccc(C(F)(F)F)c3)CC2)C[C@@H](C)NC(=O)[C@H](C)[C@@H](O)[C@]1(C)O` (mixture of isomers), the MIC against Moraxella catarrhalis is 1 µg/mL; in the experiment with Staphylococcus aureus [1], 4 µg/mL; against Streptococcus pyogenes [2], 4 µg/mL; against Streptococcus pneumoniae [3], 16 µg/mL; in the experiment with Staphylococcus aureus [4] it was 4 µg/mL; against Streptococcus pyogenes [5] it was 16 µg/mL. Moreover, the MIC is 4 µg/mL in the experiment with Streptococcus pneumoniae [6]; above 64 µg/mL against Staphylococcus aureus [7]; 2 µg/mL in the experiment with Streptococcus pyogenes [8]; 4 µg/mL against Staphylococcus aureus [9]; 0.5 µg/mL against Streptococcus pneumoniae [10]; at most 0.125 µg/mL in the experiment on Streptococcus pyogenes [11]. Besides, the MIC against Haemophilus influenzae stood at 16 µg/mL.

For the compound `CC[C@H]1OC(=O)[C@H](C)C(=O)[C@H](C)[C@@H](O[C@@H]2O[C@H](C)C[C@H](N(C)C)[C@H]2O)[C@](C)(OCC(O)CN2CCN(c3ccc(C(C)=O)cc3)CC2)C[C@@H](C)NC(=O)[C@H](C)[C@@H](O)[C@]1(C)O` (mixture of isomers), the MIC worked out at 4 µg/mL with Moraxella catarrhalis; 2 µg/mL in the experiment on Staphylococcus aureus [1]; 8 µg/mL against Streptococcus pyogenes [2]; 32 µg/mL in the experiment with Streptococcus pneumoniae [3]; 2 µg/mL against Staphylococcus aureus [4]; 32 µg/mL in the experiment on Streptococcus pyogenes [5]. Besides, the MIC in the experiment with Streptococcus pneumoniae [6] is 2 µg/mL; against Staphylococcus aureus [7], above 64 µg/mL; in the experiment with Streptococcus pyogenes [8] it was 4 µg/mL; against Staphylococcus aureus [9] it was 4 µg/mL; against Streptococcus pneumoniae [10], 1 µg/mL; against Streptococcus pyogenes [11], 0.5 µg/mL. Besides, the MIC with Haemophilus influenzae was found to be 16 µg/mL.

On to `CCOc1ccccc1N1CCN(CC(O)CO[C@]2(C)C[C@@H](C)NC(=O)[C@H](C)[C@@H](O)[C@](C)(O)[C@@H](CC)OC(=O)[C@H](C)C(=O)[C@H](C)[C@H]2O[C@@H]2O[C@H](C)C[C@H](N(C)C)[C@H]2O)CC1` (mixture of isomers), for which the MIC in the experiment with Moraxella catarrhalis came to 2 µg/mL; in the experiment with Staphylococcus aureus [1], 4 µg/mL; in the experiment on Streptococcus pyogenes [2], 8 µg/mL; in the experiment on Streptococcus pneumoniae [3] it was 16 µg/mL; with Staphylococcus aureus [4], 2 µg/mL; in the experiment with Streptococcus pyogenes [5], 16 µg/mL. Besides, the MIC against Streptococcus pneumoniae [6] was 8 µg/mL; with Staphylococcus aureus [7], above 64 µg/mL; in the experiment with Streptococcus pyogenes [8], 4 µg/mL; against Staphylococcus aureus [9], 2 µg/mL; in the experiment with Streptococcus pneumoniae [10] it was 0.5 µg/mL; against Streptococcus pyogenes [11] it was at most 0.125 µg/mL. For the same compound, the MIC in the experiment with Haemophilus influenzae is 32 µg/mL.

With `CC[C@H]1OC(=O)[C@H](C)C(=O)[C@H](C)[C@@H](O[C@@H]2O[C@H](C)C[C@H](N(C)C)[C@H]2O)[C@](C)(OCC(O)CNCc2cnc3ccccc3c2)C[C@@H](C)NC(=O)[C@H](C)[C@@H](O)[C@]1(C)O` (mixture of isomers), the MIC with Moraxella catarrhalis is 2 µg/mL; in the experiment on Staphylococcus aureus [1], 0.5 µg/mL; against Streptococcus pyogenes [2], 4 µg/mL; against Streptococcus pneumoniae [3], 8 µg/mL; in the experiment on Staphylococcus aureus [4], 1 µg/mL; against Streptococcus pyogenes [5], 8 µg/mL. Besides, the MIC against Streptococcus pneumoniae [6] was 4 µg/mL; in the experiment with Staphylococcus aureus [7] it was above 64 µg/mL; with Streptococcus pyogenes [8], 8 µg/mL; against Staphylococcus aureus [9] it was 2 µg/mL; against Streptococcus pneumoniae [10] it was at most 0.125 µg/mL; against Streptococcus pyogenes [11], at most 0.125 µg/mL. Besides, the MIC with Haemophilus influenzae was found to be 4 µg/mL.

Regarding `CC[C@H]1OC(=O)[C@H](C)C(=O)[C@H](C)[C@@H](O[C@@H]2O[C@H](C)C[C@H](N(C)C)[C@H]2O)[C@](C)(OCC(O)CNCCNc2cnc3ccccc3c2)C[C@@H](C)NC(=O)[C@H](C)[C@@H](O)[C@]1(C)O` (mixture of isomers), the MIC against Moraxella catarrhalis was at most 0.125 µg/mL; in the experiment with Staphylococcus aureus [1] it was 0.25 µg/mL; against Streptococcus pyogenes [2] it was 1 µg/mL; against Streptococcus pneumoniae [3], 1 µg/mL; against Staphylococcus aureus [4] it was 1 µg/mL; in the experiment on Streptococcus pyogenes [5], 4 µg/mL. Further, the MIC against Streptococcus pneumoniae [6] was 0.25 µg/mL; in the experiment with Staphylococcus aureus [7], above 64 µg/mL; with Streptococcus pyogenes [8], 0.5 µg/mL; in the experiment with Staphylococcus aureus [9], 1 µg/mL; in the experiment on Streptococcus pneumoniae [10] it was at most 0.125 µg/mL; in the experiment with Streptococcus pyogenes [11] it was at most 0.125 µg/mL. In addition, the MIC in the experiment with Haemophilus influenzae amounted to 1 µg/mL.

Turning to `CC[C@H]1OC(=O)[C@H](C)[C@@H](O[C@H]2C[C@@](C)(OC)[C@@H](O)[C@H](C)O2)[C@H](C)[C@@H](O[C@@H]2O[C@H](C)C[C@H](N(C)C)[C@H]2O)[C@](C)(O)C[C@@H](C)CN(C)[C@H](C)[C@@H](O)[C@]1(C)O` [AZITHROMYCIN], the MIC against Moraxella catarrhalis is 0.25 µg/mL (≈ 0.334 µM); in the experiment on Staphylococcus aureus [1], above 64 µg/mL; with Streptococcus pyogenes [2] it was 8 µg/mL (≈ 10.7 µM); in the experiment on Streptococcus pneumoniae [3], above 64 µg/mL; in the experiment on Staphylococcus aureus [4], 1 µg/mL (≈ 1.34 µM); in the experiment on Streptococcus pyogenes [5] it was above 64 µg/mL. For the same compound, the MIC in the experiment on Streptococcus pneumoniae [6] is 4 µg/mL (≈ 5.34 µM); in the experiment with Staphylococcus aureus [7], above 64 µg/mL; in the experiment with Streptococcus pyogenes [8] it was 1 µg/mL (≈ 1.34 µM); against Staphylococcus aureus [9], above 64 µg/mL; against Streptococcus pneumoniae [10], at most 0.125 µg/mL; against Streptococcus pyogenes [11] it was at most 0.125 µg/mL. The compound also came in with an MIC with Haemophilus influenzae of 1 µg/mL (≈ 1.34 µM).

With `CC[C@H]1OC(=O)[C@H](C)C(=O)[C@H](C)[C@@H](O[C@@H]2O[C@H](C)C[C@H](N(C)C)[C@H]2O)[C@](C)(OCC=Cc2cnc3ccccc3c2)C[C@@H](C)C(=O)[C@H](C)[C@H]2NC(=O)O[C@@]21C` [CETHROMYCIN], the MIC against Moraxella catarrhalis is at most 0.125 µg/mL; in the experiment on Staphylococcus aureus [1], 0.25 µg/mL (≈ 0.326 µM); in the experiment with Streptococcus pyogenes [2], at most 0.06 µg/mL; against Streptococcus pneumoniae [3], at most 0.125 µg/mL; with Staphylococcus aureus [4], at most 0.06 µg/mL; in the experiment with Streptococcus pyogenes [5], 1 µg/mL (≈ 1.31 µM). Besides, the MIC in the experiment on Streptococcus pneumoniae [6] was at most 0.06 µg/mL; with Staphylococcus aureus [7] it was above 64 µg/mL; against Streptococcus pyogenes [8], at most 0.125 µg/mL; against Staphylococcus aureus [9], 0.25 µg/mL (≈ 0.326 µM); against Streptococcus pneumoniae [10], at most 0.06 µg/mL; in the experiment on Streptococcus pyogenes [11], at most 0.06 µg/mL. Also, in the experiment with Haemophilus influenzae, the MIC stood at 1 µg/mL (≈ 1.31 µM).

Consider `CC[C@H]1OC(=O)[C@H](C)C(=O)[C@H](C)[C@@H](O[C@@H]2O[C@H](C)C[C@H](N(C)C)[C@H]2O)[C@](C)(OC)C[C@@H](C)C(=O)[C@H](C)[C@H]2N(CCCCn3cnc(-c4cccnc4)c3)C(=O)O[C@]12C` [TELITHROMYCIN], for which the MIC is at most 0.125 µg/mL in the experiment on Moraxella catarrhalis; 0.25 µg/mL (≈ 0.308 µM) against Staphylococcus aureus [1]; at most 0.06 µg/mL in the experiment on Streptococcus pyogenes [2]; at most 0.125 µg/mL in the experiment with Streptococcus pneumoniae [3]; at most 0.125 µg/mL against Staphylococcus aureus [4]; 4 µg/mL (≈ 4.93 µM) with Streptococcus pyogenes [5]. Also, the MIC with Streptococcus pneumoniae [6] was 0.5 µg/mL (≈ 0.616 µM); in the experiment on Staphylococcus aureus [7], above 64 µg/mL; in the experiment on Streptococcus pyogenes [8], 0.25 µg/mL (≈ 0.308 µM); against Staphylococcus aureus [9] it was 0.5 µg/mL (≈ 0.616 µM); in the experiment on Streptococcus pneumoniae [10], at most 0.06 µg/mL; with Streptococcus pyogenes [11], at most 0.06 µg/mL. The MIC in the experiment on Haemophilus influenzae was 1 µg/mL (≈ 1.23 µM).
